Reference: patent US11465983B2, “USP7 inhibitors for treating multiple myeloma” (Dana-Farber Cancer Institute, Inc., priority 2017, dated 2022)

What was measured:
USP7 [1] = target: T1, USP7 (Homo sapiens, UniProt Q93009); assay: Isothermal titration calorimetry, binding affinity of protein/ligand; parameters: made in house; host or cells: E. coli BL21 (DE3); conditions: ITC at 20° C.
Protocol: The binding affinity of protein/ligand was measured by adding 0.02 mM protein in cell and titrating with 0.2 mM ligand in the syringe using an Auto-ITC200 microcalorimeter (Malvern) at 20° C. (FIG. 2C). Proteins and ligands were prepared within ITC buffer containing 20 mM HEPES pH 7.5, 150 mM NaCl, and 2% DMSO. The data were fit using Origin 7.0 software.
Target sequence in this assay (Q93009 whole entry): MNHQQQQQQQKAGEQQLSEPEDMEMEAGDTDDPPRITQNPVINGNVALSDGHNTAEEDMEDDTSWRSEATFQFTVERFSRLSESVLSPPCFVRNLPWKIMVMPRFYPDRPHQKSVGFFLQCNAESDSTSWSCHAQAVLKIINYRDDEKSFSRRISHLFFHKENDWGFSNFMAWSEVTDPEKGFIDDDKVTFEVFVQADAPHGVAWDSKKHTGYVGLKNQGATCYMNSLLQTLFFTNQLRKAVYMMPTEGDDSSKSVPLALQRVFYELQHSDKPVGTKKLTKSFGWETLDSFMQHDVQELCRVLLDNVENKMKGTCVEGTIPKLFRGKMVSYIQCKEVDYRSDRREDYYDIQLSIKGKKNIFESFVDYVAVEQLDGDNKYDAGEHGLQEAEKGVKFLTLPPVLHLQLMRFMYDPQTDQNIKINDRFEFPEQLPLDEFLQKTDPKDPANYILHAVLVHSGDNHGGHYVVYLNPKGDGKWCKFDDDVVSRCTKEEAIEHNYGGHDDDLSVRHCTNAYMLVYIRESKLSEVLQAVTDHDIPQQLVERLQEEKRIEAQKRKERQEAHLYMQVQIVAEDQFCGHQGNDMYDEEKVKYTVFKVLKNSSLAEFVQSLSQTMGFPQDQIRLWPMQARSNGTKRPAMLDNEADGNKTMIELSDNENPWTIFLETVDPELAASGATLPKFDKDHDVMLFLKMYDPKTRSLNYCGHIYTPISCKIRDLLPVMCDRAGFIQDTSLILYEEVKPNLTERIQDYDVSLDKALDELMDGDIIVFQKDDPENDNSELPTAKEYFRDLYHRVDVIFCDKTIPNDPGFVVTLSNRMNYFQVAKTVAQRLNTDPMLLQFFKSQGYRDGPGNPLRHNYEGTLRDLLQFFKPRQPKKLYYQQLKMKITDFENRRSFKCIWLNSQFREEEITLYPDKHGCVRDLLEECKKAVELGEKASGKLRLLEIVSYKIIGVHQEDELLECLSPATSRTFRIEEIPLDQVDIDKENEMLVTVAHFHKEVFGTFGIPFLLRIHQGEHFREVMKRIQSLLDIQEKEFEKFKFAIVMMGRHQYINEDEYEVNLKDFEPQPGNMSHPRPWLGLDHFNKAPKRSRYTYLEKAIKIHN

USP7 [2] = target: T1, USP7; assay: Ub-AMC assay (USP7 assay); type: biochemical; parameters: fused on or other part: His tag from pET28aLIC; removed by thrombin for the catalytic domain, no removal step given for the full length; conditions: USP7 assay
Protocol: USP7 and mutants were tested for their activity in Ubiquitin-AMC assay in presence or absence of inhibitors. […] For the same assay USP7 full length WT and Q351 mutant were used at 50 nM. […] The reaction was incubated 30 min at room temperature prior to the addition of 2 uM Ubiquitin-AMC (Boston Biochem) substrate. […] The calculated initial rate values were plotted against inhibitor concentrations to determine IC50s. All the experimental data were plotted using Prism GraphPad. FIG. 2A illustrates the structure guided optimization for the inhibition of USP7.
ND refers to not disclosed.
Target sequence in this assay (Q93009 208-560 limits assumed): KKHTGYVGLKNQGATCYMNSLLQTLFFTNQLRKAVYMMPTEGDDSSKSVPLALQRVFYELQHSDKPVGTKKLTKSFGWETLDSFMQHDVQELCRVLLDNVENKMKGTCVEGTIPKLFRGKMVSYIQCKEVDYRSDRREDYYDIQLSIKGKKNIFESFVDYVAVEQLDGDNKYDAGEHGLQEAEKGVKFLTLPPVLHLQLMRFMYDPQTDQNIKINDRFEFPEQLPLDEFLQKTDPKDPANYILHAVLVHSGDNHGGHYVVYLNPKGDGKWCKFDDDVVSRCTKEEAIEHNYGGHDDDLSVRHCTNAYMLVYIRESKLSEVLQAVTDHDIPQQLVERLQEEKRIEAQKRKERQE

[3] = tested on: HDM2, p53 and p21 protein levels in MCF7 cells; assay: Immunoblot of HDM2, p53 and p21 protein levels in treated cells; type: cell-based; conditions: 16 hours, FIG. 6A
Protocol: MCF7 and MM.1S were grown in RPMI supplemented with 10% Fetal Bovine serum (FBS) and antibiotics. Cells were treated with DMSO or different concentrations of compounds 10 and 11 for 6 (MM1S) or 16 (MCF7) hours in presence or absence of cycloheximide. For the experiments in which cycloheximide was used, cells were treated with compounds for 4 (MM1S) or 14 (MCF7) hours prior to the addition of 50 ug/ml of cycloheximide. At 6 or 16 h time point cells were washed in PBS and lysed in modified RIPA buffer (1% Triton X-100, 1% sodium deoxycholate, 0.1% SDS, 20 mM Tris, 150 mM NaCl, 1 mM EDTA) containing phosphatase inhibitor cocktails 1 and 2 (Sigma), and protease inhibitors. Protein concentrations were quantified using the BCA protein assay kit (Pierce) and samples were probed by immunoblotting using mdm2 (santa cruz sc-965), p53 (cell signaling 9282), p21 (cell signaling 2947), GAPDH (cell signaling 2118), USP7 (cell signaling 4833) antibodies (FIGS. 6A-D).

Row | DH (USP7 [1]) [kcal/mol] | DS (cal/mol•K) (USP7 [1]) | n (stoichiometry) (USP7 [1]) | Kd (USP7 [1]; 0.02 mM protein, 0.2 mM ligand) [nM] | Kd (μM) (USP7 [1]; 0.02 mM protein, 0.2 mM ligand) | IC50 (USP7 [2]) [nM] | SMILES | HDM2, p53 and p21 protein levels [3]
1 | -5.4 | 5.3 | 0.98 | 7610 | – | – | O=C(CCc1ccccc1)N1CCC(O)(Cn2cnc3cc(Cl)ccc3c2=O)CC1 [Compound A, reference compound] | –
2 | – | – | – | – | No binding | > 10000 | O=C(Cc1ccccc1)N1CCC(O)(Cn2cnc3cc(Cl)ccc3c2=O)CC1 [Compound 7, 7-Chloro-3-((4-hydroxy-1-(2-phenylacetyl)piperidin-4-yl)methyl)quinazolin-4(3H)-one] | –
3 | -13.5 | −17.3 | 0.96 | 797 | – | < 200 | C[C@@H](CC(=O)N1CCC(O)(Cn2cnc3cc(Cl)ccc3c2=O)CC1)c1ccccc1 [Compound 9, (S)-7-Chloro-3-((4-hydroxy-1-(3-phenylbutanoyl)piperidin-4-yl)methyl)quinazolin-4(3H)-one] | –
4 | -3.9 | 13.1 | 2.46 | 1840 | – | < 200 | CC(CC(=O)N1CCC(O)(Cn2cnc3cc(Cl)ccc3c2=O)CC1)c1ccccc1 (stereo not drawn) [Compound 8, 7-Chloro-3-((4-hydroxy-1-(3-phenylbutanoyl)piperidin-4-yl)methyl)quinazolin-4(3H)-one] | –

Row | SMILES | DH (USP7 [1]) [kcal/mol] | DS (cal/mol•K) (USP7 [1]) | n (stoichiometry) (USP7 [1]) | Kd (USP7 [1]; 0.02 mM protein, 0.2 mM ligand) [nM] | Kd (μM) (USP7 [1]; 0.02 mM protein, 0.2 mM ligand) | IC50 (USP7 [2]) [nM] | HDM2, p53 and p21 protein levels [3]
5 | C[C@H](CC(=O)N1CCC(O)(Cn2cnc3cc(NC(=O)CCN4CCN(C)CC4)ccc3c2=O)CC1)c1ccccc1 [Compound 10, (R)—N-(3-((4-Hydroxy-1-(3-phenylbutanoyl)piperidin-4-yl)methyl)-4-oxo-3,4-dihydroquinazolin-7-yl)-3-(4-methylpiperazin-1-yl)propanamide] | -15.1 | – | 1.06 | 104 | – | < 200 | promotes loss HDM2 and accumulation of p53 and p21
